Measurements as given in US6248736A, “4-oxo-1,4-dihydro-3-quinolinecarboxamides as antiviral agents” (Pharmacia & Upjohn Company, priority 1999, dated 2001).
Where two headings read alike, the source gives them in different places.

How the values were obtained:
HCMV polymerase = molecular target: T1, HCMV polymerase (Human cytomegalovirus, UniProt P08546); assay: biochemical
T1 construct: made in house; host or cells: recombinant baculovirus-infected SF-9 cells
Procedure: (§1) The HCMV polymerase assay is performed using a scintillation proximity assay (SPA) as described in several references, such as N. D. Cook, et al., Pharmaceutical Manufacturing International, pages 49-53 (1992); K. Takeuchi, Laboratory Practice, September issue (1992); U.S. Pat. No. 4,568,649 (1986); which are incorporated by reference herein. Reactions are performed in 96-well plates. The assay is conducted in 100 μl volume with 5.4 mM HEPES (pH 7.5), 11.7 mM KCl, 4.5 mM MgCl2, 0.36 mg/ml BSA, and 90 nM ^3 H-dTTP. Assays are run with and without CHAPS, (3-[(3-Cholamidopropyl)-dimethylammonio]-1-propane-sulfonate) at a final concentration of 2 mM. HCMV polymerase is diluted in enzyme dilution buffer containing 50% glycerol, 250 mM NaCl, 10 mM HEPES (pH 7.5), 100 μg/ml BSA, and 0.01% sodium azide. The HCMV polymerase, which is expressed in recombinant baculovirus-infected SF-9 cells and purified according to literature procedures, is added at 10% (or 10 μl) of the final reaction volume, i.e., 100 μl. Compounds are diluted in 50% DMSO and 10 μl are added to each well. Control wells contain an equivalent concentration of DMSO. Unless noted otherwise, reactions are initiated via the addition of 6 nM biotinylated poly(dA)-oligo(dT) template/primer to reaction mixtures containing the enzyme, substrate, and compounds of interest. Plates are incubated in a 25 C or 37 C H2 O bath and terminated via the addition of 40 μl/reaction of 0.5 M EDTA (pH 8) per well. Reactions are terminated within the time-frame during which substrate incorporation is linear and varied depending upon the enzyme and conditions used, i.e., 30 min. for HCMV polymerase. Ten μl of streptavidin-SPA beads (20 mg/ml in PBS/10% glycerol) are added following termination of the reaction. Plates are incubated 10 min. at 37 C, then equilibrated to room temperature, and counted on a Packard Topcount. Linear regressions are performed and IC50 's are calculated using computer software.
A modified version of the above HCMV polymerase assay is performed as described above, but with the following changes: Compounds are diluted in 100% DMSO until final dilution into assay buffer. In the previous assay, compounds are diluted in 50% DMSO. 4.5 mM dithiotherotol (DTT) is added to the polymerase buffer. […] Other viral polymerase assays are performed using procedures similar to those described above.

VZV polymerase = VZV polymerase (Varicella-zoster virus, UniProt P09252); assay: VZV polymerase assay (procedure similar to the HCMV polymerase assay); assay type: biochemical
Sequence of VZV polymerase (P09252 whole entry): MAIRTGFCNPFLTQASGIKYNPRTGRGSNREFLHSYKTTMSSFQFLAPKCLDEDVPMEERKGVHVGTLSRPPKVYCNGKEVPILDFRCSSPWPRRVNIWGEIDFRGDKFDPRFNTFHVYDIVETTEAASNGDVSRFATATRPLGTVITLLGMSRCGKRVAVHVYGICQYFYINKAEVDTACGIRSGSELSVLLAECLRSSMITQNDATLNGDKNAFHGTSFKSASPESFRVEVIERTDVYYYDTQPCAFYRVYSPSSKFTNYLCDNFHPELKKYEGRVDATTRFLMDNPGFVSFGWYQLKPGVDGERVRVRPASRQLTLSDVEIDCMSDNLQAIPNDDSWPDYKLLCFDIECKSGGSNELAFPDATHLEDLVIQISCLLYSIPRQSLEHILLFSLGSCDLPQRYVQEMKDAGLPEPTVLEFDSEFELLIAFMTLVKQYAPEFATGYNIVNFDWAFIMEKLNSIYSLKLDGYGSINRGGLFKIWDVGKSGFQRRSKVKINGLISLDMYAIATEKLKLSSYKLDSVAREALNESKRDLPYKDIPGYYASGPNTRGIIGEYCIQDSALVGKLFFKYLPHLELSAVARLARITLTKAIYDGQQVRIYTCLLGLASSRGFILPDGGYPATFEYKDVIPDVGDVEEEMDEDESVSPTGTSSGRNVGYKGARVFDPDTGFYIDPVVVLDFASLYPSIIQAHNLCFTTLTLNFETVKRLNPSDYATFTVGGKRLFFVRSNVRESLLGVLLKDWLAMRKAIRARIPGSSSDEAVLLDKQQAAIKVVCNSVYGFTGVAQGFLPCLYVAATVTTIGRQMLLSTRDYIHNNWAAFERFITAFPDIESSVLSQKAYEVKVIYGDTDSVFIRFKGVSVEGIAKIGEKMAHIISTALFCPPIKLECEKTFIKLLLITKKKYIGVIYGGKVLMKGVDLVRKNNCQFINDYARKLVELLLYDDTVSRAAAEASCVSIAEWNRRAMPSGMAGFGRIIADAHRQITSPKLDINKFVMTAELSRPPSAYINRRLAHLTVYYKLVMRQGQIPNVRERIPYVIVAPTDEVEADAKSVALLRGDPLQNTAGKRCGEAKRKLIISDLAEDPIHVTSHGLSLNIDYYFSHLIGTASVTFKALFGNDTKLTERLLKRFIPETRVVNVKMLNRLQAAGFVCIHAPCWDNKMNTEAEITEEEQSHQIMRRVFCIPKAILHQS
Procedure: as §1, with “software. […]” for “software.”

HSV polymerase = HSV polymerase (Human herpesvirus 1, UniProt P04293); assay: HSV polymerase assay (procedure similar to the HCMV polymerase assay); assay type: biochemical
Sequence of HSV polymerase (P04293 whole entry): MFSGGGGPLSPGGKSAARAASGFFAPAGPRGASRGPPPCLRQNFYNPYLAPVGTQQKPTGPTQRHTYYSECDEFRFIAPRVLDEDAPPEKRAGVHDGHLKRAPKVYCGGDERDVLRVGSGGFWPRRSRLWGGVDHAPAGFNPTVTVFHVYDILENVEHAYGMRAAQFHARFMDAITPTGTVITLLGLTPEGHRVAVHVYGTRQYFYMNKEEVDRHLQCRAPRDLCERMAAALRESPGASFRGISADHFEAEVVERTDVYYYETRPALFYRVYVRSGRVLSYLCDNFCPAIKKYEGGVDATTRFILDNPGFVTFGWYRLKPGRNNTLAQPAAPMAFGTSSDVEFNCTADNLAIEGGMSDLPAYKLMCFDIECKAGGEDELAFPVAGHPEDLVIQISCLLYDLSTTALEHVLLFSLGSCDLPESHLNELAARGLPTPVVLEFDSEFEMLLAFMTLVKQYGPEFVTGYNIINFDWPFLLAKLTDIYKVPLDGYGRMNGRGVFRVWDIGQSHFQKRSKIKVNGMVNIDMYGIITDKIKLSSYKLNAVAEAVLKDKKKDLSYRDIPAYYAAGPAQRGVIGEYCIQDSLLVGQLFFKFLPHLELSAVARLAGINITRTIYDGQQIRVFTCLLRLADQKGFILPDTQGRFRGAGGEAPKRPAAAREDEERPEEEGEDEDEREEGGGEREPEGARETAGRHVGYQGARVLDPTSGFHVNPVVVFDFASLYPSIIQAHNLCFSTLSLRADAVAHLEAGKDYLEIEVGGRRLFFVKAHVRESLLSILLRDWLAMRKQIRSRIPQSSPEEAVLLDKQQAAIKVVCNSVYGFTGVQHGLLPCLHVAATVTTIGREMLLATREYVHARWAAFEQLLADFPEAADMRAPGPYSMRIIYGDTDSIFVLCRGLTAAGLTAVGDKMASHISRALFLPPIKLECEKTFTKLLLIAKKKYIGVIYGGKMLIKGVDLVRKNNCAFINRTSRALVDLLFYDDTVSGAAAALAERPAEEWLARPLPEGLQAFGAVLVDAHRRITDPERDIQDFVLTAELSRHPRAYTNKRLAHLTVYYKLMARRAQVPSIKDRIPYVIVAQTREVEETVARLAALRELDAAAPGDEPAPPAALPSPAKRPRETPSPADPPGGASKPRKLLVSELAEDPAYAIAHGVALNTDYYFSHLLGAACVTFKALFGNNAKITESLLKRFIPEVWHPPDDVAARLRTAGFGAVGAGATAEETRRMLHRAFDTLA
Procedure: as §1, with “software. […]” for “software.”

[1] = HCMV polymerase, modified SPA, compounds in 100% DMSO, 4.5 mM DTT added

T1 sequence (P08546 whole entry): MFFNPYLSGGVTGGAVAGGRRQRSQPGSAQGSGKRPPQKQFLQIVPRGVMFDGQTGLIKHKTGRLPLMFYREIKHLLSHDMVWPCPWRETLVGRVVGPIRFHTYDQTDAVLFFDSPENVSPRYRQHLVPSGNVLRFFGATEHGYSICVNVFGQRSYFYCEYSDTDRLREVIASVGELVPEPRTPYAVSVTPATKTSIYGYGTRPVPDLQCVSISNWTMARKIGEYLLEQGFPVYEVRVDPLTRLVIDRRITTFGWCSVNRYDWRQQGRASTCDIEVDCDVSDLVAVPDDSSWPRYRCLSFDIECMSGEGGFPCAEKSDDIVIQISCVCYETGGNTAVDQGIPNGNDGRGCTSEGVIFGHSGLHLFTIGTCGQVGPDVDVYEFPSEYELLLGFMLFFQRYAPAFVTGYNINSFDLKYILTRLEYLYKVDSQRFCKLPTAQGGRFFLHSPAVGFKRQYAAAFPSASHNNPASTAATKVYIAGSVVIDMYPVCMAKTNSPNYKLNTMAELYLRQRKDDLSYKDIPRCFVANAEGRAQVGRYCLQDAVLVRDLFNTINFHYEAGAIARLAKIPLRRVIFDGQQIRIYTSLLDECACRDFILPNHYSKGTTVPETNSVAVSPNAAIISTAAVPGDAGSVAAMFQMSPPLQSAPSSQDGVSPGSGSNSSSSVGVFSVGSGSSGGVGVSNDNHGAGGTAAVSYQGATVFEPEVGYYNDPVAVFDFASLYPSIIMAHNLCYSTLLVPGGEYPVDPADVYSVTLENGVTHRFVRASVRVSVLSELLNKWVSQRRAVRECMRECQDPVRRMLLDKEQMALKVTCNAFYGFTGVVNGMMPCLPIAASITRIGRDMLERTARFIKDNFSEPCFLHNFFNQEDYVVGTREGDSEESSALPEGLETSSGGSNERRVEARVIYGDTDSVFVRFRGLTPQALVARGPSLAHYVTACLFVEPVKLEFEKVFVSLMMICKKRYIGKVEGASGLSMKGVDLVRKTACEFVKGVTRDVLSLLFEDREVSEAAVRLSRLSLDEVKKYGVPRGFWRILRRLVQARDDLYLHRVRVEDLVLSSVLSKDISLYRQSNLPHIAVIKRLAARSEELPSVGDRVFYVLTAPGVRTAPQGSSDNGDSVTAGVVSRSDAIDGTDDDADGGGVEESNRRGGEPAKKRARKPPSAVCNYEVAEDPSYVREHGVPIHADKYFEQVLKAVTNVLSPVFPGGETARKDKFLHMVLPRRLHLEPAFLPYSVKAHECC

Row | SMILES | IC50 (HCMV polymerase; [1]) [nM] | IC50 (VZV polymerase) [nM] | IC50 (HSV polymerase) [nM] | IC50 (HCMV polymerase) [nM]
1 | Cn1cc(C(=O)NCc2ccc(Cl)cc2)c(=O)c2cc(CN3CCS(=O)(=O)CC3)ccc21 [Example 8, N-(4-chlorobenzyl)-6-[(1,1-dioxo-1',4-thiazinan-4-yl)methyl]-1-methyl-4-oxo-1,4-dihydro-3-quinolinecarboxamide] | 2600 | – | – | –
2 | O=C(NCc1ccc(Cl)cc1)c1cn(CCO)c2ccc(CCCO)cc2c1=O [Example 4, N-(4-Chlorobenzyl)-1-(2-hydroxyethyl)-6-(3-hydroxypropyl)-4-oxo-1,4-dihydro-3-quinolinecarboxamide] | 370 | – | – | –
3 | Cn1cc(C(=O)NCc2ccc(Cl)cc2)c(=O)c2cc(CN3CCSCC3)ccc21 [Example 7, N-(4-Chlorobenzyl)-1-methyl-4-oxo-6-(4-thiomorpholinyl-methyl)-1,4-dihydro-3-quinolinecarboxamide] | 2500 | – | – | –
4 | Cn1cc(C(=O)NCc2ccc(Cl)cc2)c(=O)c2cc(CN3CC[S+]([O-])CC3)ccc21 [Example 9, N-(4-chlorobenzyl)-1-methyl-4-oxo-6-[(1-oxo-1',4-thiazinan-4-yl)methyl]-1,4-dihydro-3-quinolinecarboxamide] | 4700 | – | – | –
5 | Cn1cc(C(=O)NCc2ccc(Cl)cc2)c(=O)c2cc(CN3CCOCC3)ccc21 [Example 3, N-(4-Chlorobenzyl)-1-methyl-6-(4-morpholinylmethyl)-4-oxo-1,4-dihydro-3-quinolinecarboxamide] | 400 | 440 | 740 | –
6 | CC(C)(C)n1cc(C(=O)NCc2ccc(Cl)cc2)c(=O)c2cc(CCCO)ccc21 [Example 6, 1-(tert-Butyl)-N-(4-chlorobenzyl)-6-(3-hydroxypropyl)-4-oxo-1,4-dihydro-3-quinolinecarboxamide] | – | – | – | 2800
7 | Cn1cc(C(=O)NCc2ccc(Cl)cc2)c(=O)c2cc(CN3CCOCC3)cc(F)c21 [Example 10, N-(4-chlorobenzyl)-8-fluoro-1-methyl-6-(4-morpholinylmethyl)-4-oxo-1,4-dihydro-3-quinolinecarboxamide] | – | – | – | 1000
8 | Cn1cc(C(=O)NCc2ccc(Cl)cc2)c(=O)c2cc(CO)ccc21 [Example 2, N-(4-Chlorobenzyl)-6-(hydroxymethyl)-1-methyl-4-oxo-1,4-dihydro-3-quinolinecarboxamide] | 7800 | – | – | –
9 | Cn1cc(C(=O)NCc2ccc(Cl)cc2)c(=O)c2cc(CCCO)ccc21 [Example 5, N-(4-Chlorobenzyl)-6-(3-hydroxypropyl)-1-methyl-4-oxo-1,4-dihydro-3-quinolinecarboxamide] | 480 | 410 | 320 | –
10 | Cn1cc(C(=O)NCc2ccc(Cl)cc2)c(=O)c2cc(C(C)(C)CCO)ccc21 [Example 1, N-(4-chlorobenzyl)-6-(3-hydroxy-1,1-dimethylpropyl)-1-methyl-4-oxo-1,4-dihydro-3-quinolinecarboxamide] | 500 | 2000 | 1800 | –
